From US12338216B2, “Solvates of abscisic acid and liquid compositions containing abscisic acid” (Clariant International Ltd., priority 2019, dated 2025)

Experiments:
[1] = tested on: enzymatically isolated cuticles of pear tree leaves; assay: Penetration of abscisic acid through enzymatically isolated cuticles of pear tree leaves (HPLC); type: in vitro ADME; conditions: active ingredient 0.1 g/L in spray liquid, tap water, n = 8-10
Protocol: In this test, the penetration of abscisic acid through enzymatically isolated cuticles of pear tree leaves was measured. The principle of the method has been published and described in detail e.g. in WO-A-2005/194844 or WO2017211572 A1.
To determine the penetration, 10 μl a spray liquor of the composition mentioned in the examples were applied to the outer side of a cuticle. In the spray liquors tap water was used in each case.
After application of the spray liquors was allowed to evaporate in each case the water, then in each case the chambers were inverted and placed in thermostated troughs, with air being blown at a defined temperature and humidity to the outside of the cuticle. The incipient penetration therefore took place at a relative humidity of 56% and a set temperature at 10° C. and 25° C. The penetration of active ingredients was determined by High Performance Liquid Chromatography (HPLC).

[2] = room temperature; cited from earlier work
[3] = tested on: poinsettia plants, e.g. the Merlot variety; assay: Phytotoxicity / plant compatibility on indicator plants; type: in vivo; conditions: 1 g/L; within one day
Source text: The plant compatibility of the abscisic acid was checked using indicator plants such as poinsettia plants, e.g. the Merlot variety. If no necrosis or other phytotoxicity symptoms such as leaf curl-up or deformation in any case were observed the substance is considered plant compatible and not phytotoxic.

Compound: CC1=CC(=O)CC(C)(C)[C@@]1(O)/C=C/C(C)=C\C(=O)O [abscisic acid, (2Z,4E)-5-[(1S)-1-hydroxy-2,6,6-trimethyl-4-oxocyclohex-2-en-1-yl]-3-methylpenta-2,4-dienoic acid]
- Mean penetration for abscisic acid after time ([1]; 10° C./56% rH, 1 day): 5.3%
- Mean penetration for abscisic acid after time ([1]; 10° C./56% rH, 2 day): 8.2%
- Mean penetration for abscisic acid after time ([1]; 25° C./56% rH, 1 day): 1.4%
- Mean penetration for abscisic acid after time ([1]; 25° C./56% rH, 2 day): 2.2%
- Highest concentration that can be achieved in water [2]: about 3000 ppm

Compound: ethoxylated lauryl alcohol
- Phytotoxicity symptoms [3]: strong distinct necrosis
